Where “and” joins values, the source holds several entries; their conditions need not be identical. Identical values can stand only once. Like-named read-outs stand apart in the source and are kept apart here. Bridge positions count the residues as written; N and C are the ends. Square brackets hold non-standard residues; d marks the D form. Peptide text beside a SMILES is read from it. 2Nal = N[C@@H](Cc1ccc2ccccc2c1)C(=O)O; R5 = C=CCCC[C@@](C)(N)C(=O)O; S5 = C=CCCC[C@](C)(N)C(=O)O; βAla = NCCC(=O)O
Legend:
FIG. 10B = settings: for MRTINF | hr: in vivo
Experimental: Each data point represents N=2. Mice were administered 5 mg/kg, 10 mg/kg, or 15 mg/kg intravenously, 5 mg/kg intramuscularly, 10 mg/kg intraperitoneally, or 10 mg/kg subcutaneously.

FIG. 9B = assay: FIG. 9B
Excerpt: Table printed on a drawing sheet, FIG. 9B
First reader's note: Plasma PK parameters derived from the concentration-time curves plotted in FIG. 9A on the same sheet.

Colo320DM cells = assay: cells
Experimental: Colo320DM cells were selected for this assay as the proliferation of this particular cell line is dependent on BCL9 and β-catenin. ICG001, a known Wnt/β-catenin small molecule inhibitor, was used as a positive control. The cell viability at each treatment condition was analyzed using CellTiterGlo luminescent cell viability assay (Promega) according to the manufacturer's protocols.
Following the procedure described in Example 2, the ability of WX-035 to inhibit cell growth was tested in a cell viability assay using Colo320DM cells.

Wnt/β-catenin signaling = assay: GeneBLAzer beta-lactamase Wnt transcription reporter assay, LEF/TCF-bla HCT-116 cells; format: cell-based; settings: for IC50: LEF/TCF-bla HCT-116 cells
Excerpt: ICG001 was used as a comparison. The GeneBLAzer uses CellSensor™ LEF/TCF-bla HCT-116 cells that contain a beta-lactamase (BLA) reporter gene under the control of the β-catenin/LEF/TCF response element stably integrated into HCT-116 cells, as shown in FIG. 5A. These cells constitutively express beta-lactamase and can be used to detect agonists and antagonists of the Wnt/β-catenin signaling pathway. The GeneBLAzer assay provides a ratiometric reporter response involving a two-color (blue/green) readout of stimulated and unstimulated cells.
LEF/TCF-bla HCT-116 cells were plated in assay medium (Invitrogen) on clear-bottom plates and incubated overnight at 37° C. […] Cells were next incubated with the Wnt agonist, mWnt3a (provided in the GeneBLAzer kit) for 5 hours at 37° C. Substrate mixture (containing LiveBLAzer™ B/G substrate that employs CCF4-AM, a FRET substrate for beta-lactamase) was added to the wells, and the plate was incubated for 2.5 hours at room temperature in the dark. Black-walled, clear-bottom, 384-well plates (Corning Costar) were used with scanning done with a Spectramax M2. Plates were scanned first (Scan 1 in the blue channel) with excitation filter 409/20 nm and emission filter 460/40 nm. Plates were then scanned (Scan 2 in the green channel) with excitation filer 409/20 nm and emission filter 530/30 nm.

HCT116 cells = format: cell-based; settings: HCT116 cells, CellTiterGlo
Experimental: The additional polypeptides were tested in a CellTiterGlo luminescent cell viability assay (Promega). ICG001 was used as a positive control in this assay.

CT26.WT cells = format: cell-based
Experimental: One of the stabilized polypeptides generated in Example 10 was tested in a cell viability assay and compared against WX-035. WX-037 was selected for this comparison study. The cell viability assay was performed with CT26.WT cells (ATCC), following the procedures described in Example 2. Briefly, 4000 cells per well of each plate were seeded with 50 μL opti-MEM medium. Each polypeptide, WX-035 or WX-037, was diluted with 2% FBS containing opti-MEM medium using 1 μL of 200× concentrated polypeptide in 99 μL of the medium. Each stock solution was diluted for testing a wide range of concentrations. 50 μL of 2× concentrated polypeptide was added to each well of the plate. Three days after the polypeptide addition, the viability of cells was measured using CellTiterGlo assay, according to the manufacturer's protocol.

CT26 cells = assay: cells; settings: Mus musculus, CT26, read-out: IC50, CT26 cell growth
Experimental: CT26 cells were grown in F-bottom plates over 5 days. […] CellTiterGlo (Promega) cell viability assay. […] Doxorubicin is a known inhibitor of cell growth and was included as a control.

[1] = read-out: IC50, Wnt transcription

## CC[C@H](C)[C@@H]1NC(=O)[C@@](C)(NC(=O)[C@H](CCCNC(=N)N)NC(=O)[C@H](CC(C)C)NC(=O)[C@@H](NC(=O)[C@H](CCC(N)=O)NC(=O)[C@H](CC(C)C)NC(C)=O)[C@@H](C)O)CCCC=CCCC[C@@](C)(C(=O)N[C@@H](CC(C)C)C(=O)N[C@@H](Cc2ccc3ccccc3c2)C(N)=O)NC(=O)[C@H](CCCNC(=N)N)NC(=O)[C@H](CCC(N)=O)NC1=O (single isomer, unassigned) [WX-024 5mg/kg, IV]
FIG. 10B
  AUCINF |: 136 µg·h/mL
  AUClast |: 136 µg·h/mL
  CL | L/hr/kg: 0.0368 L/h/kg
  CL | mL/min/kg: 0.613 mL/min/kg
  VSS |: 0.0693 L/kg
FIG. 10B; female, Balb/c, mouse, blood, iv
  MRT: 1.88 h
FIG. 10B; female, Balb/c, mouse, blood, iv, read-out: TERMINAL t1/2 | hr (converted)
  half-life: 1.99 h

## CC[C@H](C)[C@@H]1NC(=O)[C@@](C)(NC(=O)[C@H](CCCNC(=N)N)NC(=O)[C@H](CC(C)C)NC(=O)[C@@H](NC(=O)[C@H](CCC(N)=O)NC(=O)[C@H](CC(C)C)NC(C)=O)[C@@H](C)O)CCCC=CCCC[C@@](C)(C(=O)N[C@@H](CC(C)C)C(=O)N[C@@H](Cc2ccc3ccccc3c2)C(N)=O)NC(=O)[C@H](CCCNC(=N)N)NC(=O)[C@H](CCC(N)=O)NC1=O (single isomer, unassigned) [WX-024 10mg/kg, IV]
FIG. 10B
  AUCINF |: 233 µg·h/mL
  AUClast |: 233 µg·h/mL
  CL | L/hr/kg: 0.0428 L/h/kg
  CL | mL/min/kg: 0.713 mL/min/kg
  VSS |: 0.0788 L/kg
FIG. 10B; mouse, iv
  MRTINF | hr: 1.84 h

## CC[C@H](C)[C@@H]1NC(=O)[C@@](C)(NC(=O)[C@H](CCCNC(=N)N)NC(=O)[C@H](CC(C)C)NC(=O)[C@@H](NC(=O)[C@H](CCC(N)=O)NC(=O)[C@H](CC(C)C)NC(C)=O)[C@@H](C)O)CCCC=CCCC[C@@](C)(C(=O)N[C@@H](CC(C)C)C(=O)N[C@@H](Cc2ccc3ccccc3c2)C(N)=O)NC(=O)[C@H](CCCNC(=N)N)NC(=O)[C@H](CCC(N)=O)NC1=O (single isomer, unassigned) [WX-024 15mg/kg, IV]
FIG. 10B
  AUCINF |: 260 µg·h/mL
  AUClast |: 260 µg·h/mL
  CL | L/hr/kg: 0.0576 L/h/kg
  CL | mL/min/kg: 0.96 mL/min/kg
  VSS |: 0.0946 L/kg
FIG. 10B; mouse, iv
  MRTINF | hr: 1.64 h

## CC[C@H](C)[C@@H]1NC(=O)[C@@](C)(NC(=O)[C@H](CCCNC(=N)N)NC(=O)[C@H](CC(C)C)NC(=O)[C@@H](NC(=O)[C@H](CCC(N)=O)NC(=O)[C@H](CC(C)C)NC(C)=O)[C@@H](C)O)CCCC=CCCC[C@@](C)(C(=O)N[C@@H](CC(C)C)C(=O)N[C@@H](Cc2ccc3ccccc3c2)C(N)=O)NC(=O)[C@H](CCCNC(=N)N)NC(=O)[C@H](CCC(N)=O)NC1=O (single isomer, unassigned) [WX-024, LQTLRXaa1IQRXaa2L]
FIG. 9B
  T1/2 | hr: 2.44 h and 2.59 h and 2.51 h

## O=c1[nH]cc(F)c(=O)[nH]1 [5-FU, 5-fluorouracil, reference compound]
Colo320DM cells; Homo sapiens, COLO 320DM, read-out: IC50, cell viability
  IC50: 12100 nM

## O=C1[C@H](Cc2ccc(O)cc2)N2C(=O)CCN(C(=O)NCc3ccccc3)[C@H]2CN1Cc1cccc2ccccc12 [ICG001, reference compound]
Wnt/β-catenin signaling; [1]
  IC50: 1060 nM
Colo320DM cells; Colo320DM cells
  effect on cell viability / cell growth: capable of inducing cell death in a dose dependent manner
HCT116 cells; read-out: IC50, cell viability
  IC50: 2170 nM

## Cc1cc(-c2ncc(CC(=O)Nc3ccc(-c4cnccn4)cn3)cc2C)ccn1 [LGK-974, reference compound]
Wnt/β-catenin signaling; Homo sapiens, read-out: IC50, Wnt/β-catenin transcription
  IC50: > 10000 nM

## CC[C@H](C)[C@@H]1NC(=O)[C@@](C)(NC(=O)[C@H](CCCNC(=N)N)NC(=O)[C@H](CC(C)C)NC(C)=O)CCCC=CCCC[C@@](C)(C(=O)N[C@@H](CC(C)C)C(N)=O)NC(=O)[C@H](CCCNC(=N)N)NC(=O)[C@H](CCC(N)=O)NC1=O [WX-020, LRXaa1IQRXaa2L] (Ac-LR[S5]IQR[S5]L-NH2; staple 3-7)
Wnt/β-catenin signaling; HCT116 cells
  inhibition of Wnt transcription among domain mapping polypeptides: most effective polypeptide in inhibiting the Wnt transcription
Wnt/β-catenin signaling; [1]
  IC50: 1580 nM
Colo320DM cells
  IC50: 12400 nM

## CC(=O)N[C@]1(C)CCCC=CCCC[C@@](C)(C(=O)N[C@@H](CC(=O)O)C(=O)N[C@@H](CCCNC(=N)N)C(=O)N[C@@]2(C)CCCC=CCCC[C@@](C)(C(=O)N[C@@H](CC(=O)O)C(=O)N[C@@H](Cc3c[nH]cn3)C(=O)NCCC(=O)NCCC(N)=O)NC(=O)[C@H](CCCNC(=N)N)NC(=O)[C@H](CCC(N)=O)NC(=O)[C@H](CC(=O)O)NC2=O)NC(=O)[C@H](CCC(N)=O)NC(=O)[C@H](CC(=O)O)NC1=O [WX-037, Xaa1DQXaa2DRXaa3DQRXaa4DH] (Ac-[R5]DQ[S5]DR[S5]DQR[S5]DH[βAla][βAla]-NH2; staple 1-4, 7-11)
CT26.WT cells
  IC50: > 32000 nM

## COc1cccc2c1C(=O)c1c(O)c3c(c(O)c1C2=O)C[C@@](O)(C(=O)CO)C[C@@H]3O[C@H]1C[C@H](N)[C@H](O)[C@H](C)O1 [doxorubicin]
CT26 cells
  IC50: 7520 nM

## C#Cc1cccc(Nc2ncnc3cc(OCCOC)c(OCCOC)cc23)c1 [erlotinib]
CT26 cells
  IC50: > 2000 nM

## stapled, Ac N-terminus, C-terminus 2-Nal-β-Ala-β-Ala-NH2 (Ac-LR[S5]IQR[S5]L[2Nal][βAla][βAla]-NH2; staple 3-7; SMILES CC[C@H](C)[C@@H]1NC(=O)[C@@](C)(NC(=O)[C@H](CCCNC(=N)N)NC(=O)[C@H](CC(C)C)NC(C)=O)CCCC=CCCC[C@@](C)(C(=O)N[C@@H](CC(C)C)C(=O)N[C@@H](Cc2ccc3ccccc3c2)C(=O)NCCC(=O)NCCC(N)=O)NC(=O)[C@H](CCCNC(=N)N)NC(=O)[C@H](CCC(N)=O)NC1=O) [WX-021, LRXaa1IQRXaa2L]
Wnt/β-catenin signaling; [1]
  IC50: 764 nM
HCT116 cells
  inhibition of cell growth: particularly effective

Reference: patent US12264185B2, “Stabilized BCL9 peptides for treatment of aberrant Wnt signaling” (WntRx Pharmaceuticals Inc., priority 2015, dated 2025)
